Measurements as given in US20230085307A1, “PYRIDAZINONE COMPOUND AND HERBICIDE” (NISSAN CHEMICAL CORPORATION, priority 2019, published 2023).

Key:
blackgrass [1] = test: Test Example 5: herbicidal effect by foliage application, plastic box (Table 20, symbol J); assay type: in vivo, blackgrass (Alopecurus myosuroides); details: foliage application, 320 g/ha, 3 weeks after application
Outline: (§1)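 Plants were sown into sterilized diluvial soil under about 1.5 cm cover and kept in a greenhouse at 25° C. to 30° C. Fourteen days on, foliage received an even spray of the diluted emulsion. Herbicidal or crop effect was judged three weeks afterwards.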

persian speedwell [2] = test: Test Example 4: herbicidal effect by soil treatment (Table 19, symbol R); assay type: in vivo, Persian speedwell (Veronica persica); details: 320 g/ha
Outline: (§2)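 Pre-emergence style soil spray: seeds under ~1.5 cm sterilized diluvial soil received a uniform coat of emulsion diluted to the predetermined herbicide amount. Greenhouse 25–30° C; readout at week three on previously defined criteria.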

persian speedwell [3] = test: Test Example 5: herbicidal effect by foliage application, plastic box (Table 20, symbol R); assay type: in vivo, Persian speedwell (Veronica persica); details: foliage application, 320 g/ha, 3 weeks after application
Outline: as §1

rice flat sedge = test: Test Example 3: herbicidal effect by foliage application, Wagner pot (Table 18, symbol E); assay type: in vivo, rice flat sedge (Cyperus iria); details: 320 g/ha
Outline: (§3)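 Plants were sown in alluvial soil held under 0.1–0.5 cm standing water and grown 14 days in a greenhouse at 25–30 °C. An emulsifiable formulation, water-diluted to the set dose, was then sprayed onto the foliage, and effects were scored three weeks later using previously defined criteria.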

lambsquarters [4] = test: Test Example 5: herbicidal effect by foliage application, plastic box (Table 20, symbol O); assay type: in vivo, lambsquarters (Chenopodium album); details: foliage application, 320 g/ha, 3 weeks after application
Outline: as §1

southern crabgrass [5] = test: Test Example 5: herbicidal effect by foliage application, plastic box (Table 20, symbol F); assay type: in vivo, southern crabgrass (Digitaria ciliaris); details: foliage application, 320 g/ha, 3 weeks after application
Outline: as §1

barnyard grass [6] = test: Test Example 5: herbicidal effect by foliage application, plastic box (Table 20, symbol H); assay type: in vivo, barnyard grass (Echinochloa crus-galli); details: foliage application, 320 g/ha, 3 weeks after application
Outline: as §1

southern crabgrass [7] = test: Test Example 4: herbicidal effect by soil treatment (Table 19, symbol F); assay type: in vivo, southern crabgrass (Digitaria ciliaris); details: 320 g/ha
Outline: as §2

false cleavers = test: Test Example 5: herbicidal effect by foliage application, plastic box (Table 20, symbol Q); assay type: in vivo, false cleavers (Galium spurium); details: foliage application, 320 g/ha, 3 weeks after application
Outline: as §1

barnyard grass [8] = test: Test Example 3: herbicidal effect by foliage application, Wagner pot (Table 18, symbol H); assay type: in vivo, barnyard grass (Echinochloa crus-galli); details: 320 g/ha
Outline: as §3

Japanese bulrush = test: Test Example 2: herbicidal activity, application during weed generation under submerged conditions (Table 17, symbol B); assay type: in vivo, Japanese bulrush (Schoenoplectus juncoides); details: AAH 320 g/ha; application during weed generation, submerged conditions
Outline: (§4)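 Steps: fill Wagner pots with alluvial soil; add water to give 4 cm depth; sow the species mixed; grow under glass at 25–30° C.; at 1–2 leaves apply water-diluted emulsion formulation to the water surface at a fixed herbicide amount; score after 3 weeks.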

Chinese sprangletop = test: Test Example 3: herbicidal effect by foliage application, Wagner pot (Table 18, symbol D); assay type: in vivo, chinese sprangletop (Leptochloa chinensis); details: 320 g/ha
Outline: as §3

blackgrass [9] = test: Test Example 4: herbicidal effect by soil treatment (Table 19, symbol J); assay type: in vivo, blackgrass (Alopecurus myosuroides); details: 320 g/ha
Outline: as §2

chickweed = test: Test Example 4: herbicidal effect by soil treatment (Table 19, symbol P); assay type: in vivo, common chickweed (Stellaria media); details: 320 g/ha
Outline: as §2

oval-leafed pondweed = test: Test Example 2: herbicidal activity, application during weed generation under submerged conditions (Table 17, symbol C); assay type: in vivo, oval-leafed pondweed (Monochoria vaginalis); details: AAH 320 g/ha; application during weed generation, submerged conditions
Outline: as §4

lambsquarters [10] = test: Test Example 4: herbicidal effect by soil treatment (Table 19, symbol O); assay type: in vivo, lambsquarters (Chenopodium album); details: 320 g/ha
Outline: as §2

Italian ryegrass [11] = test: Test Example 4: herbicidal effect by soil treatment (Table 19, symbol K); assay type: in vivo, Italian ryegrass (Lolium multiflorum); details: 320 g/ha
Outline: as §2

late watergrass = test: Test Example 2: herbicidal activity, application during weed generation under submerged conditions (Table 17, symbol A); assay type: in vivo, late watergrass (Echinochloa oryzicola); details: AAH 320 g/ha; application during weed generation, submerged conditions
Outline: as §4

windgrass [12] = test: Test Example 4: herbicidal effect by soil treatment (Table 19, symbol L); assay type: in vivo, windgrass (Apera spica-venti); details: 320 g/ha
Outline: as §2

barnyard grass [13] = test: Test Example 4: herbicidal effect by soil treatment (Table 19, symbol H); assay type: in vivo, barnyard grass (Echinochloa crus-galli); details: 320 g/ha
Outline: as §2

green foxtail [14] = test: Test Example 5: herbicidal effect by foliage application, plastic box (Table 20, symbol G); assay type: in vivo, green foxtail (Setaria viridis); details: foliage application, 320 g/ha, 3 weeks after application
Outline: as §1

green foxtail [15] = test: Test Example 4: herbicidal effect by soil treatment (Table 19, symbol G); assay type: in vivo, green foxtail (Setaria viridis); details: 320 g/ha
Outline: as §2

wild oat [16] = test: Test Example 5: herbicidal effect by foliage application, plastic box (Table 20, symbol I); assay type: in vivo, wild oat (Avena fatua); details: foliage application, 320 g/ha, 3 weeks after application
Outline: as §1

wild oat [17] = test: Test Example 4: herbicidal effect by soil treatment (Table 19, symbol I); assay type: in vivo, wild oat (Avena fatua); details: 320 g/ha
Outline: as §2

velvetleaf [18] = test: Test Example 4: herbicidal effect by soil treatment (Table 19, symbol M); assay type: in vivo, velvetleaf (Abutilon theophrasti); details: 320 g/ha
Outline: as §2

redroot pigweed = test: Test Example 4: herbicidal effect by soil treatment (Table 19, symbol N); assay type: in vivo, redroot pigweed (Amaranthus retroflexus); details: 320 g/ha
Outline: as §2

windgrass [19] = test: Test Example 5: herbicidal effect by foliage application, plastic box (Table 20, symbol L); assay type: in vivo, windgrass (Apera spica-venti); details: foliage application, 320 g/ha, 3 weeks after application
Outline: as §1

velvetleaf [20] = test: Test Example 5: herbicidal effect by foliage application, plastic box (Table 20, symbol M); assay type: in vivo, velvetleaf (Abutilon theophrasti); details: foliage application, 320 g/ha, 3 weeks after application
Outline: as §1

Italian ryegrass [21] = test: Test Example 5: herbicidal effect by foliage application, plastic box (Table 20, symbol K); assay type: in vivo, Italian ryegrass (Lolium multiflorum); details: foliage application, 320 g/ha, 3 weeks after application
Outline: as §1

## CCOc1ccccc1-c1sc2ccc(F)cc2c1-c1c(O)c(C)nn(C)c1=O [2-028]
Blackgrass [1]
  effect on blackgrass (J): 4 (Herbicidal rate of 70% or more and less than 90%)
Persian speedwell [2]
  herbicidal effect rating, R: persian speedwell: 5 (Herbicidal rate of 90% or more (almost completely withered))
Persian speedwell [3]
  effect on persian speedwell (R): 5 (Herbicidal rate of 90% or more (almost completely withered))
Rice flat sedge
  herbicidal effect on E (rice flat sedge), rating 0-5: 5 (Herbicidal rate of 90% or more (almost completely withered))
Lambsquarters [4]
  effect on lambsquarters (O): 3 (Herbicidal rate of 40% or more and less than 70%)
Southern crabgrass [5]
  effect on southern crabgrass (F): 3 (Herbicidal rate of 40% or more and less than 70%)
Barnyard grass [6]
  effect on barnyard grass (H): 4 (Herbicidal rate of 70% or more and less than 90%)
Southern crabgrass [7]
  herbicidal effect rating, F: southern crabgrass: 3 (Herbicidal rate of 40% or more and less than 70%)
False cleavers
  effect on false cleavers (Q): 5 (Herbicidal rate of 90% or more (almost completely withered))
Barnyard grass [8]
  herbicidal effect on H (barnyard grass), rating 0-5: 4 (Herbicidal rate of 70% or more and less than 90%)
Japanese bulrush
  herbicidal effect rating, B: Japanese bulrush: 1 (Herbicidal rate of 5% or more and less than 20%)
Chinese sprangletop
  herbicidal effect on D (Chinese sprangletop), rating 0-5: 3 (Herbicidal rate of 40% or more and less than 70%)
Blackgrass [9]
  herbicidal effect rating, J: blackgrass: 0 (Herbicidal rate of 5% or less (almost no effect))
chickweed
  herbicidal effect rating, P: chickweed: 4 (Herbicidal rate of 70% or more and less than 90%)
oval-leafed pondweed
  herbicidal effect rating, C: oval-leafed pondweed: 3 (Herbicidal rate of 40% or more and less than 70%)
Lambsquarters [10]
  herbicidal effect rating, O: lambsquarters: 3 (Herbicidal rate of 40% or more and less than 70%)
Italian ryegrass [11]
  herbicidal effect rating, K: Italian ryegrass: 0 (Herbicidal rate of 5% or less (almost no effect))
Late watergrass
  herbicidal effect rating, A: late watergrass: 3 (Herbicidal rate of 40% or more and less than 70%)
Windgrass [12]
  herbicidal effect rating, L: windgrass: 0 (Herbicidal rate of 5% or less (almost no effect))
Barnyard grass [13]
  herbicidal effect rating, H: barnyard grass: 3 (Herbicidal rate of 40% or more and less than 70%)
Green foxtail [14]
  effect on green foxtail (G): 4 (Herbicidal rate of 70% or more and less than 90%)
Green foxtail [15]
  herbicidal effect rating, G: green foxtail: 2 (Herbicidal rate of 20% or more and less than 40%)
Wild oat [16]
  effect on wild oat (I): 3 (Herbicidal rate of 40% or more and less than 70%)
Wild oat [17]
  herbicidal effect rating, I: wild oat: 0 (Herbicidal rate of 5% or less (almost no effect))
Velvetleaf [18]
  herbicidal effect rating, M: velvetleaf: 3 (Herbicidal rate of 40% or more and less than 70%)
Redroot pigweed
  herbicidal effect rating, N: redroot pigweed: 5 (Herbicidal rate of 90% or more (almost completely withered))
Windgrass [19]
  effect on windgrass (L): 4 (Herbicidal rate of 70% or more and less than 90%)
Velvetleaf [20]
  effect on velvetleaf (M): 4 (Herbicidal rate of 70% or more and less than 90%)
Italian ryegrass [21]
  effect on Italian ryegrass (K): 3 (Herbicidal rate of 40% or more and less than 70%)
